From publication PMC3914206

Key:
Assay type in all cases: binding
panel of 442 kinases [1] = biological target: T1, panel of 442 kinases (Homo sapiens, UniProt P51617); conditions: Compound Concentration 10 µM
T1 construct: purchased KINOMEscan
Excerpt: (§1) We assessed the selectivity of members of this scaffold using the KINOMEscan methodology across a near comprehensive panel of 442 kinases [[18,27]].

panel of 442 kinases [2] = biological target: T2, panel of 442 kinases (Homo sapiens, UniProt P54753); conditions: Compound Concentration 10 µM
T2 construct: purchased KINOMEscan
T2 sequence (P54753 34-998): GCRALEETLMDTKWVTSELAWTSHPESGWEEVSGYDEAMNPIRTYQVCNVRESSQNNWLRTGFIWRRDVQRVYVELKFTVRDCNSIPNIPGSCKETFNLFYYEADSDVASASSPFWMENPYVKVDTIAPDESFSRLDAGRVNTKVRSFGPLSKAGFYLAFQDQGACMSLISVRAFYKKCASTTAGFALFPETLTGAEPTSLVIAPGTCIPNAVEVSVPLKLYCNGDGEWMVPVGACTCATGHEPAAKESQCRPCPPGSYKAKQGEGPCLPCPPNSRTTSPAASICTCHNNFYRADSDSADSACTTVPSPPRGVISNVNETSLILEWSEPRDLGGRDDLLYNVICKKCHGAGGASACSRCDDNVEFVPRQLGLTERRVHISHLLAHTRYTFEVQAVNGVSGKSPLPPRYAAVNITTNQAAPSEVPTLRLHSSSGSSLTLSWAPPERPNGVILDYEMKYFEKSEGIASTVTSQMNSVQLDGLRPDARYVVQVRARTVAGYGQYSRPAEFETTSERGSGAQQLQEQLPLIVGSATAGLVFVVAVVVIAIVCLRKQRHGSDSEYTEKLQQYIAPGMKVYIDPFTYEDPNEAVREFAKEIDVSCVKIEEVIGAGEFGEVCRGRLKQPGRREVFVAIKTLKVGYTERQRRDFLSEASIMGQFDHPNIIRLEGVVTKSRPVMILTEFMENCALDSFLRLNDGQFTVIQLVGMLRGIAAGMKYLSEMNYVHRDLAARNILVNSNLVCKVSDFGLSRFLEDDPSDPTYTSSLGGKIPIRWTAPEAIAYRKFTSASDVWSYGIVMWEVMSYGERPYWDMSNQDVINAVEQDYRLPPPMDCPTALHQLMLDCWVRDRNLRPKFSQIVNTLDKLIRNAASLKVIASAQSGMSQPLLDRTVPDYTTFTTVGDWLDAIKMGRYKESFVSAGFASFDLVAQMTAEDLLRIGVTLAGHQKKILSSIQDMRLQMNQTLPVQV
Excerpt: as §1

panel of 442 kinases [3] = biological target: T3, panel of 442 kinases (Homo sapiens, UniProt Q86UX6); conditions: kinase YANK3; compound concentration 10 µM
T3 construct: purchased KINOMEscan
T3 sequence (Q86UX6 whole entry): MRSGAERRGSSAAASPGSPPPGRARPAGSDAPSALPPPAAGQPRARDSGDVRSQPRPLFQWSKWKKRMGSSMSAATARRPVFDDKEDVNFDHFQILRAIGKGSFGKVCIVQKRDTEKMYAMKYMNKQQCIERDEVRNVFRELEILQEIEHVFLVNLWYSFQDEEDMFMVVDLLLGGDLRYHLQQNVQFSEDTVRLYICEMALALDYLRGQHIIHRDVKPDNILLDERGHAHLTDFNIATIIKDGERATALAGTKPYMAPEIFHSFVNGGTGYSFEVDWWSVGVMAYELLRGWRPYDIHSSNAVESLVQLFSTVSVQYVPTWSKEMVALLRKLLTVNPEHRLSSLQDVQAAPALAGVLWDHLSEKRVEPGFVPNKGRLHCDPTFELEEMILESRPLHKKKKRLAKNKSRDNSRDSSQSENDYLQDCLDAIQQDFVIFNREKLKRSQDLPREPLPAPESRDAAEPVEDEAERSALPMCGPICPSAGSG
Excerpt: as §1

T1 sequence (P51617 whole entry): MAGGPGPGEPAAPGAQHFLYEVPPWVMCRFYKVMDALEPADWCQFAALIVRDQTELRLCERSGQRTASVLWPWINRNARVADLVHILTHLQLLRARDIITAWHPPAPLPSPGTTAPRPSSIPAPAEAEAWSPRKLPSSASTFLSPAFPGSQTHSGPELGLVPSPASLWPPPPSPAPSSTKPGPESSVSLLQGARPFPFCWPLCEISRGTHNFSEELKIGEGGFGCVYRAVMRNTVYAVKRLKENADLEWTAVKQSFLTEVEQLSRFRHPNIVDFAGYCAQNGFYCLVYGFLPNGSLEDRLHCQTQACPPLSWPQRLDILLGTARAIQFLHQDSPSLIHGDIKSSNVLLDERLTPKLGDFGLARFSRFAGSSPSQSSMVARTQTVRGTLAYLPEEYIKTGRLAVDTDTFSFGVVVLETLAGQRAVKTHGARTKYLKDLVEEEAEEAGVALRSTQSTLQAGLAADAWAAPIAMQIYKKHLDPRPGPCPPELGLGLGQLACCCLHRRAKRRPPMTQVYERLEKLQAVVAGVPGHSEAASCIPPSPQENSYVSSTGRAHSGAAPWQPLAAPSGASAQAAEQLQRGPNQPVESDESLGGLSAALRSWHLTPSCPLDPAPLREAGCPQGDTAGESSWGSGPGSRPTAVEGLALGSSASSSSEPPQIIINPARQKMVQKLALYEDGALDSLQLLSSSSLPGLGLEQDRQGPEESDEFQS

Structure (SMILES) | KINOMEscan: IRAK1 (panel of 442 kinases [1]) | KINOMEscan: EPHB3 (panel of 442 kinases [2]) | % Ctrl, YANK3 (panel of 442 kinases [3])
COc1cc(C(=O)N2CCC(N3CCN(C)CC3)CC2)ccc1Nc1ncc2c(n1)N(C)c1ccccc1C(=O)N2C [15 (LRRK2-IN-1)] | 100 | 100 | 100 % Ctrl
COc1cc(C(=O)N2CCC(N3CCN(C)CC3)CC2)ccc1Nc1ncc2c(n1)N1CCc3cccc(c31)C(=O)N2C [Compound 24] | 95 |  | 100 % Ctrl
COc1cc(C(=O)N2CCC(N3CCN(C)CC3)CC2)ccc1Nc1ncc2c(n1)N(C1CCCC1)c1ccccc1C(=O)N2C [Compound 25, 11-cyclopentyl-2-((2-methoxy-4-(4-(4-methylpiperazin-1-yl)piperidine-1-carbonyl)phenyl)amino)-5-methyl-5H-benzo[e]pyrimido[5,4-b][1,4]diazepin-6(11H)-one] | 89 | 96 | 100 % Ctrl
CCOc1cc(C(=O)N2CCC(N3CCN(C)CC3)CC2)ccc1Nc1ncc2c(n1)N(C1CCCC1)c1ccccc1C(=O)N2C [Compound 26] | 100 | 100 | 100 % Ctrl
